Measurements as given in patent EP4603105A1, “PHARMACEUTICAL COMPOSITION CONTAINING CYCLIC COMPOUND HAVING SELECTIVE KRAS INHIBITORY EFFECT AGAINST HRAS AND NRAS” (CHUGAI SEIYAKU KABUSHIKI KAISHA, priority 2022, dated 2024).
Where a SMILES comes first, the peptide text is derived from it. Bridges are numbered along the chain shown (N, C = ends). [ ]: non-standard residue; d: D form. The star is where a group is joined. hPhe(3-Cl-4-CF3) = N[C@@H](CCc1ccc(C(F)(F)F)c(Cl)c1)C(=O)O; NPrPhe(4-CF3) = CCCN[C@@H](Cc1ccc(C(F)(F)F)cc1)C(=O)O; NMeGly(cPent) = CN[C@H](C(=O)O)C1CCCC1; NEtLeu = CCN[C@@H](CC(C)C)C(=O)O; NMeD = CN[C@@H](CC(=O)O)C(=O)O; Morpholide = C1CN(*)CCO1; NMeA = CN[C@@H](C)C(=O)O; Ac5c = NC1(C(=O)O)CCCC1; Aze = O=C(O)[C@@H]1CCN1; Sar = CNCC(=O)O

Columns and labels:
[1] = tested on: human lung cancer strain NCI-H441; type: cell-based
Outline: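 Proliferation was scored by […] measured after the reagent was added to cultures kept at 37°C in 5% carbon dioxide.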

HRAS wild-type protein = HRAS wild-type protein (Homo sapiens, UniProt P01112); assay: Binding to HRAS by surface plasmon resonance (SPR), KD and KD ratio to KRAS
HRAS wild-type protein, sequence (P01112 whole entry): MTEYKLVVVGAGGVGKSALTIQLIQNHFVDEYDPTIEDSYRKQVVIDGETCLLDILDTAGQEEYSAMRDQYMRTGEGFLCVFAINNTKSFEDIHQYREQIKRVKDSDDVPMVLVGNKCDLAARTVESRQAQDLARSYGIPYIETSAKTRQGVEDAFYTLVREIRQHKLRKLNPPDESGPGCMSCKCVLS
Outline: (§1)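 SPR, 30°C: Avi-biotin RAS·GDP captured via Biotin CAPture (~100–300 RU); running buffer HBS pH 7.4, 1 mM DTT, 10 mM MgCl2, 0.01% Tween 20, 10 µM GDP, 4% DMSO. Single-cycle kinetics, 100 µL/min, 75 s injections; 1:1 model → KD.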

[2] = biological target: GDP-bound NRAS wild-type protein (Homo sapiens, UniProt P01111); assay: Binding to NRAS by surface plasmon resonance (SPR), KD and KD ratio to KRAS
GDP-bound NRAS wild-type protein, sequence (P01111 whole entry): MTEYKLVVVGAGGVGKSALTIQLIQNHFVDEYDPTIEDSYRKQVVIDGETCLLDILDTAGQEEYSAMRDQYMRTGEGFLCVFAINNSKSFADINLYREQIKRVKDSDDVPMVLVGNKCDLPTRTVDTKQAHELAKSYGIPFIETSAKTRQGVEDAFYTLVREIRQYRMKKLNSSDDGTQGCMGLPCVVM
Outline: as §1

[3] = ratio of KD value for HRAS wild-type protein to KD value for KRAS (SPR)
[4] = ratio of KD value for GDP-bound NRAS wild-type protein to KD value for KRAS (SPR)
[5] = ratio of KD for HRAS wild-type protein to KD for KRAS
[6] = ratio of KD for GDP-bound NRAS wild-type protein to KD for KRAS
[7] = ratio of the KD value with respect to HRAS wild-type protein to the KD value with respect to KRAS
[8] = ratio of the KD value with respect to GDP-bound NRAS wild-type protein to the KD value with respect to KRAS
[9] = ratio of KD with respect to HRAS wild-type protein to KD with respect to KRAS
[10] = ratio of KD with respect to GDP-bound NRAS wild-type protein to KD with respect to KRAS

| Structure (SMILES) | IC50 [1] [nM] | HRAS /KRAS (HRAS wild-type protein; [5]) | NRAS /KRAS [2, 6] | also measured |
| --- | --- | --- | --- | --- |
| CCC[C@H]1C(=O)N[C@@H]([C@@H](C)CC)C(=O)N(C)CC(=O)N(C)[C@H]2C/C=C\CCN(C2=O)[C@@H](Cc2ccc(C(F)(F)F)cc2)C(=O)N(C)CC(=O)N[C@@H](CCc2ccc(C(F)(F)F)c(CC)c2)C(=O)N2C[C@H](OCC)C[C@H]2C(=O)NC2(CC(C)(C)C2)C(=O)N(C)[C@@H](C2CCCC2)C(=O)N(C)[C@H](C(=O)N(C)C)CC(=O)N1C [PP2861] | 6.3 | B (a compound having 3 or more and less than 10 is denoted as B) | A (a compound having 10 or more and less than 20 is denoted as A) | – |
| CCC[C@H]1C(=O)N[C@@H]([C@@H](C)CC)C(=O)N(C2CC2)CC(=O)N(C)[C@H]2C/C=C\CCN(C2=O)[C@@H](Cc2ccc(C(F)(F)F)cc2)C(=O)N(C)CC(=O)N[C@@H](CCc2ccc(C(F)(F)F)c(OC)c2)C(=O)N2C[C@H](OCC)C[C@H]2C(=O)NC2(CC(C)(C)C2)C(=O)N(C)[C@@H](CC2CCC2)C(=O)N(C)[C@H](C(=O)N(C)C)CC(=O)N1C [PP2770] | 137 | A (a compound having 10 or more and less than 20 is denoted as A) | A (a compound having 10 or more and less than 20 is denoted as A) | – |
| CCO[C@@H]1C[C@H]2C(=O)NC3(CCC3)C(=O)N(C)[C@@H](C3CCCC3)C(=O)N(C)[C@H](C(=O)N(C)C)CC(=O)N(C)[C@@H](CC)C(=O)N[C@@H]([C@@H](C)CC)C(=O)N3CCSC[C@H]3C(=O)N(C)[C@H]3C/C=C\CCN(C3=O)[C@@H](Cc3ccc(C(F)(F)F)cc3)C(=O)N(C)CC(=O)N[C@@H](CCc3cc(F)c(C(F)(F)F)c(F)c3)C(=O)N2C1 [PP1060] | 307 | A (a compound having 10 or more and less than 20 is denoted as A) | A (a compound having 10 or more and less than 20 is denoted as A) | – |
| CCC[C@H]1C(=O)N[C@@H]([C@@H](C)CC)C(=O)N(C)CC(=O)N(C)[C@H]2CCCCCN(C2=O)[C@@H](Cc2ccc(C(F)(F)F)cc2)C(=O)N(C)CC(=O)N[C@@H](CCc2cc(F)c(C(F)(F)F)c(F)c2)C(=O)N2C[C@H](OCC)C[C@H]2C(=O)NC2(CCC2)C(=O)N(C)[C@@H](C2CCCC2)C(=O)N(C)[C@H](C(=O)N2CCOCC2)CC(=O)N1C [PP0679] | 40.2 | – | – | HRAS /KRAS (HRAS wild-type protein; [7]): B (a compound having 3 or more and less than 10 is denoted as B); NRAS /KRAS [2, 8]: B (a compound having 3 or more and less than 10 is denoted as B) |
| CCO[C@@H]1C[C@H]2C(=O)NC3(CCC3)C(=O)N(C)[C@@H](C3CCCC3)C(=O)N(C)[C@H](C(=O)N(C)C)CC(=O)N(C)[C@@H](CC)C(=O)N[C@@H]([C@@H](C)CC)C(=O)N(C)CC(=O)N(C)[C@H]3CCCCCN(C3=O)[C@@H](Cc3ccc(F)c(Cl)c3)C(=O)N(C)CC(=O)N[C@@H](CCc3cc(F)c(C(F)(F)F)c(F)c3)C(=O)N2C1 [PP0909] | 58.1 | B (a compound having 3 or more and less than 10 is denoted as B) | B (a compound having 3 or more and less than 10 is denoted as B) | – |
| CCO[C@@H]1C[C@H]2C(=O)NC3(CC(C)(C)C3)C(=O)N(C)[C@@H](CC3CCC3)C(=O)N(C)[C@H](C(=O)N(C)C)CC(=O)N(C)[C@@H](COC)C(=O)N[C@@H]([C@@H](C)CC)C(=O)N(C3CC3)CC(=O)N(C)[C@H]3C/C=C\CCN(C3=O)[C@@H](Cc3ccc(C(F)(F)F)cc3)C(=O)N(C)CC(=O)N[C@@H](CCc3ccc(Cl)c(Cl)c3)C(=O)N2C1 [PP2821] | 90.4 | A (a compound having 10 or more and less than 20 is denoted as A) | A (a compound having 10 or more and less than 20 is denoted as A) | – |

More lines, in order of falling IC50 [1], values ahead:

| IC50 [1] [nM] | Structure (SMILES) | HRAS /KRAS (HRAS wild-type protein; [5]) | NRAS /KRAS [2, 6] | also measured |
| --- | --- | --- | --- | --- |
| 36.7 | CCO[C@@H]1C[C@H]2C(=O)NC3(CCC3)C(=O)N(C)[C@@H](C3CCCC3)C(=O)N(C)[C@H](C(=O)N3CCOCC3)CC(=O)N(C)[C@@H](CC3CC3)C(=O)N[C@@H]([C@@H](C)CC)C(=O)N(C)CC(=O)N(C)[C@H]3C/C=C\CCN(C3=O)[C@@H](Cc3ccc(F)cc3)C(=O)N(C)CC(=O)N[C@@H](CCc3cc(F)c(C(F)(F)F)c(F)c3)C(=O)N2C1 [PP1496] | – | – | HRAS /KRAS (HRAS wild-type protein; [3]): B (a compound having 3 or more and less than 10 is denoted as B); NRAS /KRAS [2, 4]: A (a compound having 10 or more and less than 20 is denoted as A) |
| 16.5 | CCO[C@@H]1C[C@H]2C(=O)NC3(CCC3)C(=O)N(C)[C@@H](C3CCCC3)C(=O)N(C)[C@H](C(=O)N(C)C)CC(=O)N(C)[C@@H](CC(C)(C)C)C(=O)N[C@@H]([C@@H](C)CC)C(=O)N(C)CC(=O)N(C)[C@H]3C/C=C\CCN(C3=O)[C@@H](Cc3ccc(C(F)(F)F)cc3)C(=O)N(C)CC(=O)N[C@@H](CCc3cc(F)c(C(F)(F)F)c(F)c3)C(=O)N2C1 [PP1117] | A (a compound having 10 or more and less than 20 is denoted as A) | A (a compound having 10 or more and less than 20 is denoted as A) | – |
| 16.1 | C#CC[C@H]1C(=O)N[C@@H]([C@@H](C)CC)C(=O)N(C)CC(=O)N(C)[C@H]2C/C=C\CCN(C2=O)[C@@H](Cc2ccc(C(F)(F)F)cc2)C(=O)N(C)CC(=O)N[C@@H](CCc2ccc(C(F)(F)F)c(OC)c2)C(=O)N2C[C@@H](C)C[C@H]2C(=O)NC2(CC(C)(C)C2)C(=O)N(C)[C@@H](C2CCCC2)C(=O)N(C)[C@H](C(=O)N(C)CC)CC(=O)N1C [PP2055] | – | – | HRAS /KRAS (HRAS wild-type protein; [7]): B (a compound having 3 or more and less than 10 is denoted as B); NRAS /KRAS [2, 8]: A (a compound having 10 or more and less than 20 is denoted as A) |
| 12.4 | CCO[C@@H]1C[C@H]2C(=O)NC3(CCC3)C(=O)N(C)[C@@H](C3CCCC3)C(=O)N(C)[C@H](C(=O)N(C)CCOC)CC(=O)N(C)[C@@H](CC3CC3)C(=O)N[C@@H]([C@@H](C)CC)C(=O)N(C)CC(=O)N(C)[C@H]3C/C=C\CCN(C3=O)[C@@H](Cc3ccc(C(F)(F)F)cc3)C(=O)N(C)CC(=O)N[C@@H](CCc3ccc(C(F)(F)F)c(OC)c3)C(=O)N2C1 [PP1327] | – | – | HRAS /KRAS (HRAS wild-type protein; [9]): A (a compound having 10 or more and less than 20 is denoted as A); NRAS /KRAS [2, 10]: A (a compound having 10 or more and less than 20 is denoted as A) |
| 8.8 | CCC[C@H]1C(=O)N[C@@H]([C@@H](C)CC)C(=O)N(C)CC(=O)N(C)[C@H]2C/C=C\CCN(C2=O)[C@@H](Cc2ccc(C(F)(F)F)cc2)C(=O)N(C)CC(=O)N[C@@H](CCc2cc(F)c(C(F)(F)F)c(F)c2)C(=O)N2C[C@H](OCC)C[C@H]2C(=O)NC2(CCC2)C(=O)N(C)[C@@H](C2CCCC2)C(=O)N(C)[C@H](C(=O)N(C)CC)CC(=O)N1C [PP1304] | – | – | HRAS /KRAS (HRAS wild-type protein; [9]): A (a compound having 10 or more and less than 20 is denoted as A); NRAS /KRAS [2, 10]: A (a compound having 10 or more and less than 20 is denoted as A) |
| 6.4 | CC[C@H](C)[C@@H]1NC(=O)[C@H](CC(C)C)N(C)C(=O)C[C@@H](C(=O)N(C)C)N(C)C(=O)[C@H](C2CCCC2)N(C)C(=O)C2(CC(C)(C)C2)NC(=O)[C@@H]2C[C@H](C)CN2C(=O)[C@H](CCc2cc(F)c(C(F)(F)F)c(F)c2)NC(=O)CN(C)C(=O)[C@H](Cc2ccc(C(F)(F)F)cc2)N2CC/C=C\C[C@@H](C2=O)N(C)C(=O)CN(C)C1=O [PP1662] | – | – | HRAS /KRAS (HRAS wild-type protein; [3]): B (a compound having 3 or more and less than 10 is denoted as B); NRAS /KRAS [2, 4]: A (a compound having 10 or more and less than 20 is denoted as A) |
| 6.3 | CC[C@H](C)[C@@H]1NC(=O)[C@H](CC2CC2)N(C)C(=O)C[C@@H](C(=O)N(C)C)N(C)C(=O)[C@H](C2CCCC2)N(C)C(=O)C2(CC(C)(C)C2)NC(=O)[C@@H]2C[C@H](C)CN2C(=O)[C@H](CCc2ccc(C(F)(F)F)c(OC)c2)NC(=O)CN(C)C(=O)[C@H](Cc2ccc(C)cc2)N2CC/C=C\C[C@@H](C2=O)N(C)C(=O)CN(C)C1=O [PP1898] | – | – | HRAS /KRAS (HRAS wild-type protein; [7]): B (a compound having 3 or more and less than 10 is denoted as B); NRAS /KRAS [2, 8]: B (a compound having 3 or more and less than 10 is denoted as B) |
| 5.3 | CCCN1C(=O)[C@@H]2CCN2C(=O)[C@H](C)N(C)C(=O)[C@H]([C@@H](C)CC)NC(=O)[C@H](CC(C)C)N(CC)C(=O)C[C@@H](C(=O)N2CCOCC2)N(C)C(=O)[C@H](C2CCCC2)N(C)C(=O)C2(CCCC2)NC(=O)[C@@H]2CCCN2C(=O)[C@H](CCc2ccc(C(F)(F)F)c(Cl)c2)NC(=O)CN(C)C(=O)[C@@H]1Cc1ccc(C(F)(F)F)cc1 [PP0151] ([NEtLeu]I[NMeA][Aze][NPrPhe(4-CF3)][Sar][hPhe(3-Cl-4-CF3)]P[Ac5c][NMeGly(cPent)][NMeD]-Morpholide; lactam N-11) | C (A compound having a KD ratio of 0.1 or more and less than 3 is denoted as C) | C (A compound having a KD ratio of 0.1 or more and less than 3 is denoted as C) | – |
| 2.2 | CCCC[C@H]1C(=O)N[C@@H]([C@@H](C)CC)C(=O)N(C)CC(=O)N(C)[C@H]2C/C=C\CCN(C2=O)[C@@H](Cc2ccc(C(F)(F)F)cc2)C(=O)N(C)CC(=O)N[C@@H](CCc2cc(F)c(C(F)(F)F)c(F)c2)C(=O)N2C[C@H](OCC)C[C@H]2C(=O)NC2(CC(C)(C)C2)C(=O)N(C)[C@@H](C2CCCC2)C(=O)N(C)[C@H](C(=O)N(C)C)CC(=O)N1C [PP1649] | – | – | HRAS /KRAS (HRAS wild-type protein; [3]): B (a compound having 3 or more and less than 10 is denoted as B); NRAS /KRAS [2, 4]: A (a compound having 10 or more and less than 20 is denoted as A) |
